Measurements taken from US8076487B2, “Pyridone derivative and herbicide” (Kumiai Chemical Industry Co., Ltd., priority 2006, dated 2011).

Key:
Type in all cases: in vivo
[1] = test system: slender amaranth (Amaranthus viridis L.); assay: Test Example 2: herbicidal effect by soil application to upland field; settings: soil surface spray, upland field soil, 1,000 g active ingredient per hectare, 21st day after application
Procedure, shortened: (§1)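 Scoring on a standard scale took place 21 days after application, with plants kept in a greenhouse. Active ingredient (1,000 g/ha, as diluted wettable powder, 1,000 L/ha) was sprayed evenly onto soil directly after sowing and covering seeds.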

[2] = test system: barnyardgrass (Echinochloa crus-galli (L.) P. Beauv. var. crus-galli); assay: as above; settings: soil surface spray, upland field soil, 1,000 g active ingredient per hectare, 21st day after application
Procedure, shortened: as §1

[3] = test system: velvetleaf (Abutilon theophrasti medicus); assay: as above; settings: soil surface spray, upland field soil, 1,000 g active ingredient per hectare, 21st day after application
Procedure, shortened: as §1

[4] = test system: green foxtail (Setaria viridis (L.) P. Beauv.); assay: as above; settings: soil surface spray, upland field soil, 1,000 g active ingredient per hectare, 21st day after application
Procedure, shortened: as §1

[5] = test system: early watergrass (Echinochloa oryzicola Vasing); assay: Test Example 1: herbicidal effect by soil application to paddy field; settings: paddy field soil application; active ingredient 1,000 g per 1 hectare; wettable powder added dropwise to water surface the day after sowing; examined on the 21st day after application
Procedure, shortened: (§2)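 Plants were sown in flooded (3 cm) paddy soil and evaluated for herbicidal effect 21 days after soil application in a greenhouse.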

[6] = test system: Japanese bulrush (Scirpus juncoides Roxb.); assay: as above; settings: paddy field soil application; active ingredient 1,000 g per 1 hectare; wettable powder added dropwise to water surface the day after sowing; examined on the 21st day after application
Procedure, shortened: as §2

[7] = test system: heartshape false pickerelweed (Monochoria vaginalis (Burm.f.) C.Presl); assay: as above; settings: paddy field soil application; active ingredient 1,000 g per 1 hectare; wettable powder added dropwise to water surface the day after sowing; examined on the 21st day after application
Procedure, shortened: as §2

[8] = test system: slender amaranth (Amaranthus viridis L.); assay: Test Example 3: herbicidal effect by application to upland field (foliage treatment); settings: 14th day after application; for herbicidal effect (index), Slender Amaranth: foliage treatment, plants grown two weeks, 1,000 g active ingredient per hectare; for herbicidal effect, Slender Amaranth: foliage treatment, 1,000 g active ingredient per 1 hectare, greenhouse
Procedure, shortened: (§3)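 Seeds went into pots of field soil and grew under glass for two weeks. The whole plant was then sprayed from above with diluted wettable powder delivering 1,000 g/ha of active ingredient. Plants stayed in the greenhouse, and injury was graded against a standard 14 days after spraying.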

[9] = test system: barnyardgrass (Echinochloa crus-galli (L.) P. Beauv. var. crus-galli); assay: as above; settings: 14th day after application; for herbicidal effect (index), Barnyardgrass: foliage treatment, plants grown two weeks, 1,000 g active ingredient per hectare; for herbicidal effect, Barnyardgrass: foliage treatment, 1,000 g active ingredient per 1 hectare, greenhouse
Procedure, shortened: as §3

[10] = test system: velvetleaf (Abutilon theophrasti medicus); assay: as above; settings: 14th day after application; for herbicidal effect (index), Velvetleaf: foliage treatment, plants grown two weeks, 1,000 g active ingredient per hectare; for herbicidal effect, Velvetleaf: foliage treatment, 1,000 g active ingredient per 1 hectare, greenhouse
Procedure, shortened: as §3

[11] = test system: green foxtail (Setaria viridis (L.) P. Beauv.); assay: as above; settings: 14th day after application; for herbicidal effect (index), Green Foxtail: foliage treatment, plants grown two weeks, 1,000 g active ingredient per hectare; for herbicidal effect, Green Foxtail: foliage treatment, 1,000 g active ingredient per 1 hectare, greenhouse
Procedure, shortened: as §3

## O=C1CCCC(O)=C1C(=O)c1ccc(C(F)(F)F)n(-c2ccc(F)cc2)c1=O [I-93]
[1]
  herbicidal effect (index), Slender Amaranth: 5 (90% or more of herbicidal effect and crop phytotoxicity)
[2]
  herbicidal effect (index), Barnyardgrass: 5 (90% or more of herbicidal effect and crop phytotoxicity)
[3]
  herbicidal effect (index), Velvetleaf: 5 (90% or more of herbicidal effect and crop phytotoxicity)
[4]
  herbicidal effect (index), Green Foxtail: 5 (90% or more of herbicidal effect and crop phytotoxicity)
[5]
  herbicidal effect, Echinochloa oryzicola Vasing: 5 (90% or more of herbicidal effect and crop phytotoxicity)
[6]
  herbicidal effect, Scirpus juncoides Roxb.: 5 (90% or more of herbicidal effect and crop phytotoxicity)
[7]
  herbicidal effect, Monochoria vaginalis (Burm. f.) C. Presl: 5 (90% or more of herbicidal effect and crop phytotoxicity)
[8]
  herbicidal effect (index), Slender Amaranth: 5 (90% or more of herbicidal effect and crop phytotoxicity)
[9]
  herbicidal effect (index), Barnyardgrass: 5 (90% or more of herbicidal effect and crop phytotoxicity)
[10]
  herbicidal effect (index), Velvetleaf: 5 (90% or more of herbicidal effect and crop phytotoxicity)
[11]
  herbicidal effect (index), Green Foxtail: 5 (90% or more of herbicidal effect and crop phytotoxicity)

## CCOCCn1c(C(F)(F)F)ccc(C(=O)C2=C(O)CCCC2=O)c1=O [I-32]
[1]
  herbicidal effect (index), Slender Amaranth: 5 (90% or more of herbicidal effect and crop phytotoxicity)
[2]
  herbicidal effect (index), Barnyardgrass: 5 (90% or more of herbicidal effect and crop phytotoxicity)
[3]
  herbicidal effect (index), Velvetleaf: 5 (90% or more of herbicidal effect and crop phytotoxicity)
[4]
  herbicidal effect (index), Green Foxtail: 5 (90% or more of herbicidal effect and crop phytotoxicity)
[5]
  herbicidal effect, Echinochloa oryzicola Vasing: 5 (90% or more of herbicidal effect and crop phytotoxicity)
[6]
  herbicidal effect, Scirpus juncoides Roxb.: 5 (90% or more of herbicidal effect and crop phytotoxicity)
[7]
  herbicidal effect, Monochoria vaginalis (Burm. f.) C. Presl: 5 (90% or more of herbicidal effect and crop phytotoxicity)
[8]
  herbicidal effect (index), Slender Amaranth: 5 (90% or more of herbicidal effect and crop phytotoxicity)
[9]
  herbicidal effect (index), Barnyardgrass: 5 (90% or more of herbicidal effect and crop phytotoxicity)
[10]
  herbicidal effect (index), Velvetleaf: 5 (90% or more of herbicidal effect and crop phytotoxicity)
[11]
  herbicidal effect (index), Green Foxtail: 5 (90% or more of herbicidal effect and crop phytotoxicity)

## Cn1ncc(C(=O)c2ccc(C(F)(F)F)n(C)c2=O)c1O [IV-1, 4-[1,2-dihydro-1-methyl-2-oxo-6-(trifluoromethyl)pyridine-3-carbonyl]-5-hydroxy-1-methyl-1H-pyrazole]
[1]
  herbicidal effect (index), Slender Amaranth: 5 (90% or more of herbicidal effect and crop phytotoxicity)
[2]
  herbicidal effect (index), Barnyardgrass: 5 (90% or more of herbicidal effect and crop phytotoxicity)
[3]
  herbicidal effect (index), Velvetleaf: 5 (90% or more of herbicidal effect and crop phytotoxicity)
[4]
  herbicidal effect (index), Green Foxtail: 4 (70 to less than 90% of herbicidal effect and crop phytotoxicity)
[5]
  herbicidal effect, Echinochloa oryzicola Vasing: 5 (90% or more of herbicidal effect and crop phytotoxicity)
[6]
  herbicidal effect, Scirpus juncoides Roxb.: 5 (90% or more of herbicidal effect and crop phytotoxicity)
[7]
  herbicidal effect, Monochoria vaginalis (Burm. f.) C. Presl: 5 (90% or more of herbicidal effect and crop phytotoxicity)
[8]
  herbicidal effect, Slender Amaranth: 5 (90% or more of herbicidal effect and crop phytotoxicity)
[9]
  herbicidal effect, Barnyardgrass: 4 (70 to less than 90% of herbicidal effect and crop phytotoxicity)
[10]
  herbicidal effect, Velvetleaf: 5 (90% or more of herbicidal effect and crop phytotoxicity)
[11]
  herbicidal effect, Green Foxtail: 4 (70 to less than 90% of herbicidal effect and crop phytotoxicity)

## O=C1CCCC(O)=C1C(=O)c1ccc(C(F)(F)F)n(-c2ccccc2F)c1=O [I-91]
[1]
  herbicidal effect (index), Slender Amaranth: 5 (90% or more of herbicidal effect and crop phytotoxicity)
[2]
  herbicidal effect (index), Barnyardgrass: 5 (90% or more of herbicidal effect and crop phytotoxicity)
[3]
  herbicidal effect (index), Velvetleaf: 5 (90% or more of herbicidal effect and crop phytotoxicity)
[4]
  herbicidal effect (index), Green Foxtail: 5 (90% or more of herbicidal effect and crop phytotoxicity)
[5]
  herbicidal effect, Echinochloa oryzicola Vasing: 5 (90% or more of herbicidal effect and crop phytotoxicity)
[6]
  herbicidal effect, Scirpus juncoides Roxb.: 5 (90% or more of herbicidal effect and crop phytotoxicity)
[7]
  herbicidal effect, Monochoria vaginalis (Burm. f.) C. Presl: 5 (90% or more of herbicidal effect and crop phytotoxicity)
[8]
  herbicidal effect (index), Slender Amaranth: 5 (90% or more of herbicidal effect and crop phytotoxicity)
[9]
  herbicidal effect (index), Barnyardgrass: 5 (90% or more of herbicidal effect and crop phytotoxicity)
[10]
  herbicidal effect (index), Velvetleaf: 5 (90% or more of herbicidal effect and crop phytotoxicity)
[11]
  herbicidal effect (index), Green Foxtail: 4 (70 to less than 90% of herbicidal effect and crop phytotoxicity)

## CCCS(=O)(=O)Oc1c(C(=O)c2ccc(C(F)(F)F)n(-c3ccc(F)c(COC)c3)c2=O)cnn1C(C)C [IV-96]
[1]
  herbicidal effect (index), Slender Amaranth: 4 (70 to less than 90% of herbicidal effect and crop phytotoxicity)
[2]
  herbicidal effect (index), Barnyardgrass: 4 (70 to less than 90% of herbicidal effect and crop phytotoxicity)
[3]
  herbicidal effect (index), Velvetleaf: 5 (90% or more of herbicidal effect and crop phytotoxicity)
[4]
  herbicidal effect (index), Green Foxtail: 3 (50 to less than 70% of herbicidal effect and crop phytotoxicity)
[5]
  herbicidal effect, Echinochloa oryzicola Vasing: 5 (90% or more of herbicidal effect and crop phytotoxicity)
[6]
  herbicidal effect, Scirpus juncoides Roxb.: 4 (70 to less than 90% of herbicidal effect and crop phytotoxicity)
[7]
  herbicidal effect, Monochoria vaginalis (Burm. f.) C. Presl: 5 (90% or more of herbicidal effect and crop phytotoxicity)
[8]
  herbicidal effect, Slender Amaranth: 4 (70 to less than 90% of herbicidal effect and crop phytotoxicity)
[9]
  herbicidal effect, Barnyardgrass: 3 (50 to less than 70% of herbicidal effect and crop phytotoxicity)
[10]
  herbicidal effect, Velvetleaf: 5 (90% or more of herbicidal effect and crop phytotoxicity)
[11]
  herbicidal effect, Green Foxtail: 5 (90% or more of herbicidal effect and crop phytotoxicity)

## CC(C)(C)S(=O)(=O)Cn1c(C(F)(F)F)ccc(C(=O)C2=C(O)CCCC2=O)c1=O [I-56]
[1]
  herbicidal effect (index), Slender Amaranth: 5 (90% or more of herbicidal effect and crop phytotoxicity)
[2]
  herbicidal effect (index), Barnyardgrass: 4 (70 to less than 90% of herbicidal effect and crop phytotoxicity)
[3]
  herbicidal effect (index), Velvetleaf: 5 (90% or more of herbicidal effect and crop phytotoxicity)
[4]
  herbicidal effect (index), Green Foxtail: 5 (90% or more of herbicidal effect and crop phytotoxicity)
[5]
  herbicidal effect, Echinochloa oryzicola Vasing: 5 (90% or more of herbicidal effect and crop phytotoxicity)
[6]
  herbicidal effect, Scirpus juncoides Roxb.: 5 (90% or more of herbicidal effect and crop phytotoxicity)
[7]
  herbicidal effect, Monochoria vaginalis (Burm. f.) C. Presl: 5 (90% or more of herbicidal effect and crop phytotoxicity)
[8]
  herbicidal effect (index), Slender Amaranth: 5 (90% or more of herbicidal effect and crop phytotoxicity)
[9]
  herbicidal effect (index), Barnyardgrass: 5 (90% or more of herbicidal effect and crop phytotoxicity)
[10]
  herbicidal effect (index), Velvetleaf: 5 (90% or more of herbicidal effect and crop phytotoxicity)
[11]
  herbicidal effect (index), Green Foxtail: 5 (90% or more of herbicidal effect and crop phytotoxicity)

## C=CCn1c(C(F)(F)F)ccc(C(=O)C2=C(OC)CCCC2=O)c1=O [II-25]
[1]
  herbicidal effect (index), Slender Amaranth: 5 (90% or more of herbicidal effect and crop phytotoxicity)
[2]
  herbicidal effect (index), Barnyardgrass: 5 (90% or more of herbicidal effect and crop phytotoxicity)
[3]
  herbicidal effect (index), Velvetleaf: 5 (90% or more of herbicidal effect and crop phytotoxicity)
[4]
  herbicidal effect (index), Green Foxtail: 5 (90% or more of herbicidal effect and crop phytotoxicity)
[5]
  herbicidal effect, Echinochloa oryzicola Vasing: 5 (90% or more of herbicidal effect and crop phytotoxicity)
[6]
  herbicidal effect, Scirpus juncoides Roxb.: 5 (90% or more of herbicidal effect and crop phytotoxicity)
[7]
  herbicidal effect, Monochoria vaginalis (Burm. f.) C. Presl: 5 (90% or more of herbicidal effect and crop phytotoxicity)
[8]
  herbicidal effect, Slender Amaranth: 5 (90% or more of herbicidal effect and crop phytotoxicity)
[9]
  herbicidal effect, Barnyardgrass: 5 (90% or more of herbicidal effect and crop phytotoxicity)
[10]
  herbicidal effect, Velvetleaf: 5 (90% or more of herbicidal effect and crop phytotoxicity)
[11]
  herbicidal effect, Green Foxtail: 5 (90% or more of herbicidal effect and crop phytotoxicity)

## CSCn1c(C(F)(F)F)ccc(C(=O)C2=C(O)CCCC2=O)c1=O [I-46]
[1]
  herbicidal effect (index), Slender Amaranth: 5 (90% or more of herbicidal effect and crop phytotoxicity)
[2]
  herbicidal effect (index), Barnyardgrass: 5 (90% or more of herbicidal effect and crop phytotoxicity)
[3]
  herbicidal effect (index), Velvetleaf: 5 (90% or more of herbicidal effect and crop phytotoxicity)
[4]
  herbicidal effect (index), Green Foxtail: 3 (50 to less than 70% of herbicidal effect and crop phytotoxicity)
[5]
  herbicidal effect, Echinochloa oryzicola Vasing: 5 (90% or more of herbicidal effect and crop phytotoxicity)
[6]
  herbicidal effect, Scirpus juncoides Roxb.: 5 (90% or more of herbicidal effect and crop phytotoxicity)
[7]
  herbicidal effect, Monochoria vaginalis (Burm. f.) C. Presl: 5 (90% or more of herbicidal effect and crop phytotoxicity)
[8]
  herbicidal effect (index), Slender Amaranth: 5 (90% or more of herbicidal effect and crop phytotoxicity)
[9]
  herbicidal effect (index), Barnyardgrass: 5 (90% or more of herbicidal effect and crop phytotoxicity)
[10]
  herbicidal effect (index), Velvetleaf: 5 (90% or more of herbicidal effect and crop phytotoxicity)
[11]
  herbicidal effect (index), Green Foxtail: 3 (50 to less than 70% of herbicidal effect and crop phytotoxicity)
